Assay in all cases: relative viability (nuclei count vs DMSO), 5 days (fraction); higher = more cells survive
Compound in test [1]: CCC1=CN=CN=C1N2CCN(CC2)CC3=NC4=C(N3)C=C(C=C4)C(F)(F)F
In a few lines:
(§1)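 Five library-drug doses spaced by √10 were pinned onto vehicle-anchored 1536-well plates of lung cancer cell lines that had been kept overnight at 37 °C. Cells went 5 days without medium change, then were fixed, permeabilised and Hoechst-stained together, imaged at 4× and counted by MetaXpress. Viability is the ratio of treated-well to vehicle-well nuclei, taken as a median over plates. Plates required control CV below 25% and at least one doubling.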

Compound in test [2]: CCn1c(-c2nonc2N)nc2cnc(Oc3cccc(NC(=O)c4ccc(OCCN5CCOCC5)cc4)c3)cc21
Summed up: as §1

Compound in another test: N=C1NC(=O)/C(=C/c2ccc(O)cc2)S1 [Mirin]
In a few lines:
as §1

Compound in test [3]: CCn1c(-c2nonc2N)nc2cnc(Oc3cccc(NC(=O)c4ccc(OCCN5CCOCC5)cc4)c3)cc21 + Cc1nc(Nc2ncc(C(=O)Nc3c(C)cccc3Cl)s2)cc(N2CCN(CCO)CC2)n1 [Dasatinib] (partner 0.075 µM)
In a few lines: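 Cells from lung cancer lines were seeded into 1536-well plates and, one day later, dosed by pin tool. Treatments were either a single drug or a fixed dose of an anchor drug with five library-drug doses (not always all listed) in √10 steps. After 5 days, nuclei were stained in a one-step fixation (final 0.05% Triton X-100, 1% formaldehyde, 1 ug/ml Hoechst) and counted on 4× images, and relative viability is the treated-to-vehicle nuclei ratio, as the median of duplicate plates.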

NCI-H1437: the relative viability is 0.948 in test [1] (0.04 µM); 0.92 in test [1] (0.1265 µM); 0.921 in test [1] (0.4 µM); 0.863 in test [1] (1.265 µM); 0.747 in test [1] (4 µM); 1.03 in test [2] (0.04 µM). The relative viability in test [2] (0.1265 µM) was determined as 0.933; in test [2] (0.4 µM) it was 0.763; in test [2] (1.265 µM), 0.796; in test [2] (4 µM) it was 0.705; with Mirin (0.25 µM), 1; in the test with Mirin (0.7906 µM), 1.02. In addition, the relative viability is 0.984 with Mirin (2.5 µM); 0.995 with Mirin (7.906 µM); 0.958 with Mirin (25 µM); 0.629 in test [3] (first compound 0.04 µM); 0.373 in test [3] (first compound 0.1265 µM); 0.148 in test [3] (first compound 0.4 µM). Moreover, the figures for the relative viability in test [3] (first compound 1.265 µM) and in test [3] (first compound 4 µM) were 0.363 and 0.35, respectively.
Turning to NCI-H1563, the relative viability amounted to 0.956 in test [1] (0.04 µM); 0.965 in test [1] (0.1265 µM); 0.953 in test [1] (0.4 µM); 0.9 in test [1] (1.265 µM); 1 in test [1] (4 µM); 0.853 in test [2] (0.04 µM). In addition, the relative viability was determined as 0.872 in test [2] (0.1265 µM); 0.868 in test [2] (0.4 µM); 0.86 in test [2] (1.265 µM); 0.778 in test [2] (4 µM); 1.03 with Mirin (0.25 µM); 1.21 in the test with Mirin (0.7906 µM). Moreover, the relative viability stood at 0.995 with Mirin (2.5 µM); 0.942 with Mirin (7.906 µM); 0.951 in the test with Mirin (25 µM); 0.447 in test [3] (first compound 0.04 µM); 0.452 in test [3] (first compound 0.1265 µM); 0.343 in test [3] (first compound 0.4 µM). Further, the values for the relative viability in test [3] (first compound 1.265 µM) and in test [3] (first compound 4 µM) were 0.461 and 0.456, respectively.
As to NCI-H1623, the relative viability in test [1] (0.04 µM) is 0.897; in test [1] (0.1265 µM) it was 0.996; in test [1] (0.4 µM) it was 0.873; in test [1] (1.265 µM) it was 0.832; in test [1] (4 µM) it was 1.17; in test [2] (0.04 µM), 1.13. The relative viability in test [2] (0.1265 µM) came to 1.02; in test [2] (0.4 µM), 0.974; in test [2] (1.265 µM) it was 0.902; in test [2] (4 µM) it was 1.08; in the test with Mirin (0.25 µM), 0.967; with Mirin (0.7906 µM), 1.08. Moreover, the relative viability worked out at 1.04 in the test with Mirin (2.5 µM); 0.823 with Mirin (7.906 µM); 0.738 in the test with Mirin (25 µM); 0.655 in test [3] (first compound 0.04 µM); 0.797 in test [3] (first compound 0.1265 µM); 0.529 in test [3] (first compound 0.4 µM). The relative viability in test [3] (first compound 1.265 µM) was 0.543; in test [3] (first compound 4 µM) it was 0.606.
Regarding NCI-H1650, the relative viability amounted to 0.82 in test [1] (0.04 µM); 0.824 in test [1] (0.1265 µM); 0.84 in test [1] (0.4 µM); 0.703 in test [1] (1.265 µM); 0.981 in test [1] (4 µM); 1.21 in test [2] (0.04 µM). For the same cell line, the relative viability in test [2] (0.1265 µM) was determined as 0.894; in test [2] (0.4 µM), 0.858; in test [2] (1.265 µM) it was 0.746; in test [2] (4 µM), 0.812; with Mirin (0.25 µM), 0.963; in the test with Mirin (0.7906 µM) it was 1.08. Moreover, the relative viability with Mirin (2.5 µM) was 1; with Mirin (7.906 µM), 0.984; with Mirin (25 µM), 0.61; in test [3] (first compound 0.04 µM) it was 0.324; in test [3] (first compound 0.1265 µM), 0.36; in test [3] (first compound 0.4 µM), 0.371. For the same cell line, the relative viability came out at 0.398 in test [3] (first compound 1.265 µM) and 0.363 in test [3] (first compound 4 µM).
Take NCI-H1651: the relative viability in test [1] (0.04 µM) stood at 1.08; in test [1] (0.1265 µM), 0.961; in test [1] (0.4 µM) it was 0.978; in test [1] (1.265 µM) it was 0.909; in test [1] (4 µM), 0.988; in test [2] (0.04 µM), 1.05. The relative viability came out at 1.01 in test [2] (0.1265 µM); 0.826 in test [2] (0.4 µM); 0.7 in test [2] (1.265 µM); 0.648 in test [2] (4 µM); 0.962 in the test with Mirin (0.25 µM); 0.973 with Mirin (0.7906 µM). For the same cell line, the relative viability with Mirin (2.5 µM) turned out to be 1.03; with Mirin (7.906 µM) it was 0.866; in the test with Mirin (25 µM), 0.918; in test [3] (first compound 0.04 µM), 0.499; in test [3] (first compound 0.1265 µM), 0.369; in test [3] (first compound 0.4 µM), 0.229. Further, the relative viability in test [3] (first compound 1.265 µM) came to 0.247; in test [3] (first compound 4 µM) it was 0.267.
Regarding NCI-H1666, the relative viability in test [1] (0.04 µM) stood at 0.99; in test [1] (0.1265 µM) it was 0.929; in test [1] (0.4 µM), 0.952; in test [1] (1.265 µM), 0.962; in test [1] (4 µM), 0.944; in test [2] (0.04 µM), 1.13. Moreover, the relative viability in test [2] (0.1265 µM) amounted to 1.15; in test [2] (0.4 µM), 1.04; in test [2] (1.265 µM), 0.607; in test [2] (4 µM), 0.628; with Mirin (0.25 µM), 1.05; with Mirin (0.7906 µM) it was 1.04. Also, the relative viability turned out to be 0.987 in the test with Mirin (2.5 µM); 0.889 with Mirin (7.906 µM); 0.892 in the test with Mirin (25 µM); 0.788 in test [3] (first compound 0.04 µM); 0.617 in test [3] (first compound 0.1265 µM); 0.442 in test [3] (first compound 0.4 µM). The relative viability in test [3] (first compound 1.265 µM) came to 0.28; in test [3] (first compound 4 µM) it was 0.278.
NCI-H1734: the relative viability came to 0.88 in test [1] (0.04 µM); 0.98 in test [1] (0.1265 µM); 0.943 in test [1] (0.4 µM); 0.814 in test [1] (1.265 µM); 1.03 in test [1] (4 µM); 0.961 in test [2] (0.04 µM). Besides, the relative viability came out at 0.878 in test [2] (0.1265 µM); 0.545 in test [2] (0.4 µM); 0.418 in test [2] (1.265 µM); 0.362 in test [2] (4 µM); 0.978 with Mirin (0.25 µM); 0.761 with Mirin (0.7906 µM). In addition, the relative viability in the test with Mirin (2.5 µM) was determined as 0.929; with Mirin (7.906 µM), 0.895; with Mirin (25 µM), 0.884; in test [3] (first compound 0.04 µM), 0.416; in test [3] (first compound 0.1265 µM), 0.39; in test [3] (first compound 0.4 µM), 0.232. Moreover, the relative viability in test [3] (first compound 1.265 µM) is 0.229; in test [3] (first compound 4 µM), 0.198.

The values above are taken from the supplement of paper PMC10307832.
